Assay results reported in patent publication US9550742B2, “11-OXO-10,11-dihydrodibenzo[B,F][1,4]thiazepine S-oxide derivatives and their use as dopamine D2 receptor antagonists” (The United States of America, as Represented by the …, priority 2013, dated 2017).

target: T1, D2 DAR (Homo sapiens, UniProt P14416); experiment: D2 Ca^2+ screen assay (calcium accumulation, HEK293 T-REx with Gqi5); assay type: cell-based; conditions: dopamine D2 calcium release assay of Example 1; read-out: Ca^2+ AC50
T1 construct: expressed in transfected cells; host or cells: HEK293 T-REx, Tet-inducible, with chimeric G-protein Gqi5
T1 sequence (P14416 whole entry): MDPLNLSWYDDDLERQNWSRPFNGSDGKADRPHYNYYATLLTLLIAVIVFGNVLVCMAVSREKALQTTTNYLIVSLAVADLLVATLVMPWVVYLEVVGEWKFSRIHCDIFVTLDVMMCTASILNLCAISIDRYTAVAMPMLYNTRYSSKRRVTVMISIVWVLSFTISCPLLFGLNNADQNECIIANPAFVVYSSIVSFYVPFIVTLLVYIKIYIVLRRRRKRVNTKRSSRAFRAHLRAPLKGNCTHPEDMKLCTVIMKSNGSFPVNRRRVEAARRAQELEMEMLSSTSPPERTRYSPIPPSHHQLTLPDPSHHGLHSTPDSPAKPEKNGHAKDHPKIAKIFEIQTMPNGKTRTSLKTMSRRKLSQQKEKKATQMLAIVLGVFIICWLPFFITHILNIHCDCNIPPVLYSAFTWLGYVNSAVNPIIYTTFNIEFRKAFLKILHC
Experimental: The resting concentration of calcium ions (Ca^2+) in the cells' cytoplasm is normally maintained in the range of 10-100 nM. To maintain this low concentration, Ca^2+ is actively pumped from the cytosol to the extracellular space and into the endoplasmic reticulum (ER), and sometimes into the mitochondria. Signaling occurs when the cell is stimulated to release Ca^2+ from intracellular stores. The most common signaling pathway that increases cytoplasmic calcium concentration is the phospholipase C (PLC) pathway. […] IP3 diffuses to the ER, binds to its receptor (IP3 receptor), which is a Ca^2+ channel and, thus, releases Ca^2+ from the ER to the cytosol. To measure this cytosolic Ca^2+ accumulation, we used the Screen Quest™ Fluo-8 Calcium Assay Kit (AAT Bioquest, Sunnyvale, Calif.). Acetoxymethyl (AM) esters bound to Fluo-8™ dye are non-polar molecules that easily cross live cell membranes transporting the dye inside the cell, and are then rapidly hydrolyzed by cellular esterases inside live cells. As Fluo-8™ is freed from AM esters, it binds to Ca^2+ and emits a fluorescent signal at 514 nm that escalates with increasing cytosolic Ca^2±. To measure this calcium flux signal, we used the Functional Drug Screening System (FDSS) (Hamamatsu, Japan), a high throughput screening device that allows optical detection of signal transmissions within living cells in a time-resolving fashion. […] Quest Fluo-8™ calcium reagent was freshly prepared prior to adding to the cells (lyophilized Fluo-8™ dye provided with the kit was re-suspended in 200 μL DMSO as a 500× stock and stored at −20° C.). 2 μL/well of Quest Fluo-8™ calcium dye diluted in HBSS +10 mM HEPES buffer (for every 10 mL buffer, 1 mL of 10× quencher provided in the kit and 20 μL of 500×DMSO stock dye were added) was added to cells with a Multi-Drop Combi (ThermoScientific) and incubated for 45-90 min in the dark at ambient temperature. Then, the plates were introduced into the FDSS where they were pinned with 23 nL of test compound or dopamine controls and were read by FDSS in non-stimulated mode for 180 sec for detection of agonists. […]

AC50, < 1000 nM:
CCN1C(=O)c2ccccc2[S+]([O-])c2ccc(C(=O)NCc3cccc(OC)c3)cc21 (stereo not drawn) [Compound 2, 10-Ethyl-N-(3-methoxybenzyl)-11-oxo-10,11-dihydrodibenzo[b,f][1,4]thiazepine-8-carboxamide 5-oxide]
CCN1C(=O)c2ccccc2[S+]([O-])c2ccc(C(=O)NCc3ccccc3)cc21 (stereo not drawn) [Compound 4, N-Benzyl-10-ethyl-11-oxo-10,11-dihydrodibenzo[b,f][1,4]thiazepine-8-carboxamide 5-oxide]
CCN1C(=O)c2ccccc2[S+]([O-])c2ccc(C(=O)NC(C)c3ccccc3)cc21 (stereo not drawn) [Compound 5, 10-Ethyl-11-oxo-N-(1-phenylethyl)-10,11-dihydrodibenzo[b,f][1,4]thiazepine-8-carboxamide 5-oxide]
CCN1C(=O)c2ccccc2[S+]([O-])c2ccc(C(=O)NCc3ccc(SC)cc3)cc21 (stereo not drawn) [Compound 6, 10-Ethyl-N-(4-(methylthio)benzyl)-11-oxo-10,11-dihydrodibenzo[b,f][1,4]thiazepine-8-carboxamide 5-oxide]
CCN1C(=O)c2ccccc2[S+]([O-])c2ccc(C(=O)NCc3ccc(C(C)(C)C)cc3)cc21 (stereo not drawn) [Compound 7, N-(4-tert-Butylbenzyl)-10-ethyl-11-oxo-10,11-dihydrodibenzo[b,f][1,4]thiazepine-8-carboxamide 5-oxide]
CCN1C(=O)c2ccccc2[S+]([O-])c2ccc(C(=O)NCc3ccc(C)cc3)cc21 (stereo not drawn) [Compound 8, 10-Ethyl-N-(4-methylbenzyl)-11-oxo-10,11-dihydrodibenzo[b,f][1,4]thiazepine-8-carboxamide 5-oxide]
CCN1C(=O)c2ccccc2[S+]([O-])c2ccc(C(=O)NCc3ccc(C(F)(F)F)cc3)cc21 (stereo not drawn) [Compound 9, 10-Ethyl-11-oxo-N-(4-(trifluoromethyl)benzyl)-10,11-dihydrodibenzo[b,f][1,4]thiazepine-8-carboxamide 5-oxide]
CCN1C(=O)c2ccccc2[S+]([O-])c2ccc(C(=O)NCc3ccc(F)cc3)cc21 (stereo not drawn) [Compound 10, 10-Ethyl-N-(4-fluorobenzyl)-11-oxo-10,11-dihydrodibenzo[b,f][1,4]thiazepine-8-carboxamide 5-oxide]
CCN1C(=O)c2ccccc2[S+]([O-])c2ccc(C(=O)NCc3ccc(Cl)cc3)cc21 (stereo not drawn) [Compound 11]
CCN1C(=O)c2ccccc2[S+]([O-])c2ccc(C(=O)NCc3ccc(C#N)cc3)cc21 (stereo not drawn) [Compound 12, N-(4-Cyanobenzyl)-10-ethyl-11-oxo-10,11-dihydrodibenzo[b,f][1,4]thiazepine-8-carboxamide 5-oxide]
CCN1C(=O)c2ccccc2[S+]([O-])c2ccc(C(=O)NCc3ccc(S(C)(=O)=O)cc3)cc21 (stereo not drawn) [Compound 13, 10-Ethyl-N-(4-(methylsulfonyl)benzyl)-11-oxo-10,11-dihydrodibenzo[b,f][1,4]thiazepine-8-carboxamide 5-oxide]
CCN1C(=O)c2ccccc2[S+]([O-])c2ccc(C(=O)NCc3ccc4c(c3)OCO4)cc21 (stereo not drawn) [Compound 15, N-(benzo[d][1,3]dioxol-5-ylmethyl)-10-ethyl-11-oxo-10,11dihydrodibenzo[b,f][1,4]thiazepine-8-carboxamide 5-oxide]
CCN1C(=O)c2ccccc2[S+]([O-])c2ccc(C(=O)Nc3ccccc3)cc21 (stereo not drawn) [Compound 16, 10-Ethyl-11-oxo-N-phenyl-10,11-dihydrodibenzo[b,f][1,4]thiazepine-8-carboxamide 5-oxide]
CCN1C(=O)c2ccccc2[S+]([O-])c2ccc(C(=O)Nc3ccc(OC)cc3)cc21 (stereo not drawn) [Compound 17, 10-Ethyl-N-(4-methoxyphenyl)-11-oxo-10,11-dihydrodibenzo[b,f][1,4]thiazepine-8-carboxamide 5-oxide]
CCN1C(=O)c2ccccc2[S+]([O-])c2ccc(C(=O)NCCc3ccc(OC)cc3)cc21 (stereo not drawn) [Compound 18, 10-Ethyl-N-(4-methoxyphenethyl)-11-oxo-10,11-dihydrodibenzo[b,f][1,4]thiazepine-8-carboxamide 5-oxide]
